Test [1] deals with C57BL/6 mice. Description: Laser-induced subretinal choroidal neovascularization (CNV) in mice. The settings on record: for CNV yield (percent of the spots with CNV): read 10 days after laser. The class given is in vivo. An excerpt: In order to test the efficacy of MIF inhibitors to prevent subretinal or intraretinal neovascularization, subretinal choroidal neovascularization (CNV) was induced in C57BL/6 mice (n=3; 6 eyes/per experimental group) using a double-frequency YAG laser (532 nm). Laser parameters were 600 mW of power, 0.1 sec duration, and a spot size of 50 micrometers. Approximately 8-12 spots per eye were placed. One group of animals received 500 micrograms of 4-(2-fluorophenyl)-6-iodopyrimidine (Compound 1) into the posterior subtenon space through a 32-G needle 24 hours before laser application. Compound 1 was dissolved in 1:1 mixture of DMSO and corn oil solvent. The injection volume was 5 microliters.
Another group of animals received the drug six days after the laser photocoagulation when subretinal neovascularization is at its maximum growth. This scenario exemplified the use of MIF inhibitors (including, but not limited to Compound 1) in the treatment of active wet age-related macular degeneration (AMD). The two […] controls received either PBS or DMSO:corn oil mixture into the subTenon space. MIF^−/− animals (i.e., mice with a homozygous knock out of the MIF gene) were also taken as the negative control.
Ten days after the laser photocoagulation animals were perfused with high molecular weight dextran (2 megadalton)-conjugated fluorescein under deep anesthesia and then sacrificed. Choroidal neovascularization (CNV) yield (=percent of the spots with CNV) was determined under a fluorescent microscope.
The effect of MIF neutralization on retinal pigment epithelial (RPE) differentiation and wound healing properties in animal models of chemical RPE debridement and laser-induced choroidal neovascularization (CNV) was tested. CNV was induced in C57BL/6 mice (n=18) using a double-frequency YAG laser (532 nm; 600 mW; 0.1 sec; 50 μm; 8-12 spots/eye). The experimental group (n=6) received 500 μg/in 5 μl of a MIF inhibitor (4-iodo-6-(2-fluorophenyl)pyrimidine; Compound 1) in the posterior subtenon space 24 hours before laser application. Ten (10) days later, animals were sacrificed and induced CNV (i.e., yield) was determined.
(§1) Another group of animals received MIF-inhibitor 6 days after laser treatment to determine the effect of MIF-neutralization on established CNV. RPE loss was also mimicked in twelve C57BL/6 mice by patchy debridement of RPE using intraperitoneal sodium iodate injection (25 mg/kg). Seven days later, animals received the subtenon MIF inhibitor and RPE resurfacing was determined on day 21 by morphometric image analysis. In all experiments, MIF^−/− animals and wild type animals that received the solvent (DMSO/Corn oil) and/or PBS were used as controls.

Test [2] relates to C57BL/6 mice. Description: Sodium iodate chemical RPE debridement model of geographic atrophy. Format: in vivo. As to the method:
as §1
Immunostaining for RPE65, vimentin, E-cadherin, and N-cadherin was used to identify and characterize RPE differentiation.
Sodium iodate was employed for chemical debridement of RPE to mimic geographic atrophy. Mice received NalO3 (25 mg/kg) intraperitoneally followed by subtenon injection of Compound 1 (500 μg in 5 μL) on day 7. Mice were sacrificed on Day 21 and the surface coverage by RPE cells was determined.

The test system of test [3] is C57BL/6 mice. Description: Proliferative vitreoretinopathy (PVR) model, surgically induced retinal detachment in mice. The class given is in vivo. Particulars: 500 μg in 5 μl subtenon on days 0 and 5; light microscopy day 10. As to the method:
The effect of MIF inhibition on EMT was further tested in vivo using an animal model of PVR. Six (6) adult C57BL/6 mice were anesthetized with pentobarbital sodium (70 mg/kg i.p.) and a linear incision was made in the cornea. The lens was removed and a tear was created in the peripheral retina using a 32G needle. The corneal incision was then sutured with 10-0 nylon.
The experimental group received 500 μg/in 5 μl of a MIF inhibitor (4-iodo-6-(2-fluorophenyl)pyrimidine; Compound 1) in the posterior subtenon space on Days 0 and 5, whereas control animals received the solvent. Animals were sacrificed on Day 10 and light microscopy was used to assess the presence and extent of PVR. MIF^−/− animals (n=3) were also used as control.
In order to test the safety and efficacy of MIF neutralization in vivo, the model disclosed in Saika et al., 2004 was employed.
Briefly, retinal detachment was created in three C57BL6 mice. Animals underwent a lensectomy/vitrectomy procedure under ketamine/xylazine anesthesia. These procedures were done through a central slit corneal incision. After the completion of the procedure, a tear was created in the peripheral retina under the microscope and the sensory retina was detached. Next, the cornea was closed with a 10-0 nylon suture and each animal was returned to its cage. […]

In a further test the test system is Brown Norway rats. Description: PVR / retinal detachment model in Brown Norway rats. Format: in vivo. As to the method: Briefly, retinal detachment was created in three C57BL6 mice. Animals underwent a lensectomy/vitrectomy procedure under ketamine/xylazine anesthesia. These procedures were done through a central slit corneal incision. After the completion of the procedure, a tear was created in the peripheral retina under the microscope and the sensory retina was detached. Next, the cornea was closed with a 10-0 nylon suture and each animal was returned to its cage. The experimental group received 500 μg/in 5 μl of the MIF inhibitor 4-(2-fluorophenyl)-6-iodopyrimidine (Compound 1) in the posterior subtenon space on days 0 and 5, whereas control animals received the solvent (i.e., a 1:1 mixture of DMSO and corn oil). Animals were sacrificed on day 10 and light microscopy was used to assess the presence and extent of PVR. MIF^−/− knockout animals (n=3) were also used as a control.
Similar experiments were also repeated using Brown Norway rats. […] However, in control animals (FIG. 5 I) numerous RPE cells became migratory in the vitreous and started to form epiretinal membranes

The next test deals with primary human RPE cells. Description: EMT of cultured primary human RPE cells (morphology and qPCR). The class given is cell-based. As to the method:
To determine whether MIF inhibition can prevent the formation proliferative vitreoretinopathy (PVR) by inhibiting epithelio-mesenchymal transformation (EMT) of RPE, primary human RPE cells from two young donors were plated on tissue-culture plastic and maintained in DMEM H16 supplemented with 10% FBS and a MIF inhibitor (4-IPP; 25-50 μM) for 3 weeks. Control cells were exposed only to the solvent (DMSO/Corn oil).
Morphology and qPCR for microphthalmia transcription factor (MITF), plasminogen activator inhibitor type-1 (PAI-1), vimentin, and N-cadherin were used to assay for the presence of EMT.
Human RPE cells were isolated freshly (<24 hours) from human donor eyes. Harvested RPE cells were cultured on tissue-culture plates. 25 μM of 4-IPP, a small molecule antagonist of MIF, was added to the culture medium every other day. Untreated wells were taken as control. 21 days later, cells were photographed and RNA was isolated for qPCR analyses.

Setting [4] is: 25 μM every other day, 21 days, qPCR.
Where [5] appears, read: 25-50 μM for 3 weeks, qPCR vs control.

Entries after “also recorded” stand apart in the source; their conditions may differ.

Consider `Fc1ccccc1-c1cc(I)ncn1` [Compound 1, 4-(2-fluorophenyl)-6-iodopyrimidine], for which the “CNV yield (percent of the spots with CNV)” value in the test with C57BL/6 mice [1] (500 μg in 5 μl posterior subtenon, 24 hours before laser (pre-laser)) was 10.7%; with C57BL/6 mice [1] (500 μg subtenon 6 days after laser (post-laser, established CNV)) it was 12.9%. The “RPE growth over the laser spot” value in the test with C57BL/6 mice [1] (histology / fluorescence microscopy of laser spots) was “RPE cells proliferated to cover the spot; also recorded: RPE proliferated over the laser spot and sealed it off from neovascularization; also recorded: proliferate over the laser spot and seal it off from neovascularization”. For the same compound, the “occurrence of CNV (FIG. 1)” value in the test with C57BL/6 mice [1] (post-laser application (5th bar)) and with C57BL/6 mice [1] (pre-laser application (4th bar)) was “significantly suppressed the occurrence of CNV” each time. The “differentiation of proliferating RPE cells (immunostaining)” value in the test with C57BL/6 mice [2] (MIF-neutralized animals, RPE65, vimentin, E-cadherin, N-cadherin staining) is “maintained differentiated cuboidal morphology and expressed E-cadherin and RPE-65”. Besides, the “surface coverage by RPE cells vs vehicle (FIG. 7)” value in the test with C57BL/6 mice [2] (NaIO3 25 mg/kg i.p., 500 μg in 5 μL subtenon on day 7, day 21) is on record as “statistically significant greater surface coverage”. Besides, the “surface coverage by RPE cells” value with C57BL/6 mice [2] (sodium iodate 25 mg/kg i.p., subtenon MIF inhibitor on day 7, morphometric image analysis on day 21) turned out to be 93.8±6.3%. Besides, the “RPE resurfacing of the denuded Bruch's membrane (FIGS. 8, 9)” value in the test on C57BL/6 mice [2] (three weeks after partial destruction of RPE cells, vs vehicle) was “proliferated at a higher rate, resurfaced the Bruch's membrane, and formed an epithelial monolayer; also recorded: better resurfacing of the denuded Bruch's membrane with RPE cells; also recorded: RPE cells established a monolayer in many places; also recorded: proliferated at a higher rate; resurfaced the Bruch's membrane and formed an epithelial monolayer”. The “RPE cell proliferation (PCNA staining)” value in the test on C57BL/6 mice [2] (vs vehicle control mice, FIG. 10A) was “increased cell proliferation; also recorded: higher proliferation of the RPE cells”. Further, the “apoptotic cell death (TUNEL staining)” value in the test on C57BL/6 mice [2] (vs vehicle control mice, FIG. 10B) was “decreased apoptotic cell death”. In the test on C57BL/6 mice [3], the “RPE cell layering / morphology in the subretinal space” value is listed as “remained as a monolayer; also recorded: maintained an epitheloid monolayer in the subretinal space”. In the test on C57BL/6 mice [3], the “formation / contraction of peri-retinal membranes (PVR)” value was “significantly inhibited the formation of peri-retinal membranes; also recorded: No physical distortion related with the contraction of periretinal membranes was noted”. Besides, in the test on Brown Norway rats (Brown Norway rats, FIG. 5H, vs control), the “RPE morphology and invasion of subretinal / intravitreal space” value was “maintained their epitheloid morphology and did not invade the subretinal and/or intravitreal space”. For the same compound, the “preservation of photoreceptor cells in the detached retina” value with Brown Norway rats (FIG. 6A vs vehicle control FIG. 6B) was “better preservation of the photoreceptor cells in the detached retina; also recorded: better preserved”. Moreover, the “outer nuclear layer thickness” value in the test with Brown Norway rats (detached retina, FIG. 6A vs controls) is “thicker outer nuclear layer”.
Consider `Ic1cc(-c2ccccc2)ncn1` [Compound 4-IPP, 4-iodo-6-phenylpyrimidine], for which, in the test with primary human RPE cells (setting [4]), the “MITF mRNA level, control lower than inhibitor-treated cells” value is 1.6 fold; the “N-cadherin mRNA level, control higher than inhibitor-treated cells” value amounted to 43.2 fold; the “PAI-1 mRNA level, control higher than inhibitor-treated cells” value was 19.7 fold; the “vimentin mRNA level, control higher than inhibitor-treated cells” value turned out to be 8.5 fold. The “cell number and morphology of cultured human RPE cells (FIG. 4A)” value with primary human RPE cells (25 μM every other day, 21 days, vs control wells) is “significantly fewer in number, were uniformly pigmented, retained a classical cuboidal epithelial morphology”. In the test with primary human RPE cells (setting [5]), the “increase in MITF mRNA level” value is on record as 1.6 ×, the “reduction of N-cadherin mRNA level” value turned out to be 43.2 ×, the “reduction of PAI-1 mRNA level” value amounted to 19.7 × and the “reduction of vimentin mRNA level” value amounted to 8.5 ×. Also, the “cell number and morphology of cultured human RPE cells” value in the test on primary human RPE cells (25-50 μM for 3 weeks, vs solvent control) is reported as “significantly fewer in number but maintained their typical cuboidal epithelial morphology”.

The record behind these values is US9155790B2, “Methods and compositions for modulating ocular damage” (University of Lousiville Research Foundation, Inc., priority 2010, dated 2015).
